Molecules are shown by their SMILES.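 Cultured in 96-well plates, cells were exposed to test compound for 48 hours across five concentrations. GI50: concentration for 50% inhibition of growth.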 The source made the active and inactive calls. Cut-off read from the data, not from the text of the source: active = GI50 up to about 1.1 µM and inactive = higher. A value given as a limit tells only on which side of the number the result lay.

We go through eleven compounds from ChEMBL document CHEMBL1201862, “PubChem BioAssay data set” (2004).

Among the test systems are ACHN; KM12; HCT-15; SW-620; RPMI-8226; U-251; COLO 205; RXF 393; OVCAR-8; LOX IMVI; HOP-62; SR; NCI-H23; CCRF-CEM; SK-MEL-2; UACC-257; NCI-H522; OVCAR-4; A549.
Assay in all cases: inhibition of tumour cell growth, NCI panel, 48 h

For the compound `NNc1cnn(-c2ccccc2)c(=O)c1Cl`, the GI50 was > 100 µM (inactive) with ACHN; > 100 µM (inactive) in the assay on KM12; greater than 100 µM in the assay on HCT-15; > 100 µM (inactive) in the assay on SW-620; > 100 µM (inactive) with RPMI-8226; > 100 µM (inactive) in the assay with U-251. The GI50 with COLO 205, in the assay with RXF 393, in the assay on OVCAR-8, in the assay with LOX IMVI, in the assay with HOP-62 and in the assay with SR was > 100 µM (inactive) each time. Further, the GI50 in the assay on NCI-H23, in the assay with CCRF-CEM, in the assay on SK-MEL-2, with UACC-257, in the assay on NCI-H522 and in the assay with OVCAR-4 was > 100 µM (inactive) throughout. Further, in the assay with A549, the GI50 is > 100 µM (inactive).
With `O=C(/C=N/O)Nc1ccc(Cl)c(I)c1`, the GI50 is 16.7 µM (inactive) in the assay with ACHN; 20.6 µM (inactive) with KM12; 14.4 µM with HCT-15; 34.4 µM (inactive) with SW-620; 20 µM (inactive) in the assay with RPMI-8226; 16.1 µM (inactive) with U-251. Also, the GI50 with COLO 205 was 13.6 µM (inactive); in the assay with RXF 393 it was 16.8 µM (inactive); with OVCAR-8, 28.9 µM (inactive); in the assay on LOX IMVI, 11.1 µM (inactive); in the assay on HOP-62, 23.1 µM (inactive); with SR, 15.7 µM (inactive). Also, the GI50 was 17.8 µM (inactive) in the assay on NCI-H23; 26.7 µM (inactive) in the assay with CCRF-CEM; 15.7 µM (inactive) in the assay with SK-MEL-2; 28.6 µM (inactive) in the assay with UACC-257; 14.7 µM (inactive) in the assay on NCI-H522; 28.6 µM (inactive) in the assay with OVCAR-4. The GI50 in the assay on A549 is 26.9 µM (inactive).
In the case of `C1=C(c2ccccc2)C(OC2Oc3ccccc3C=C2c2ccccc2)Oc2ccccc21` (stereo not drawn), the GI50 in the assay on ACHN is 26.1 µM (inactive); in the assay on KM12 it was > 100 µM (inactive); in the assay with HCT-15, greater than 100 µM; with SW-620, 31.3 µM (inactive); in the assay on RPMI-8226 it was 33.6 µM (inactive); in the assay on U-251, 15.5 µM (inactive). Moreover, the GI50 was > 100 µM (inactive) in the assay with COLO 205; > 100 µM (inactive) with RXF 393; > 100 µM (inactive) in the assay with OVCAR-8; > 100 µM (inactive) in the assay with LOX IMVI; > 100 µM (inactive) with HOP-62; 33.6 µM (inactive) in the assay with SR. Further, the GI50 in the assay on NCI-H23, in the assay with CCRF-CEM, with SK-MEL-2, in the assay with UACC-257, with NCI-H522 and in the assay on A549 was > 100 µM (inactive) throughout.
As to `Nc1cn(C2OC(CC(c3ccccc3)(c3ccccc3)c3ccccc3)C(O)C2O)c(=O)[nH]c1=O` (stereo not drawn), the GI50 in the assay on ACHN was > 100 µM (inactive); in the assay with KM12, 31.3 µM (inactive); with HCT-15, 17.8 µM; with SW-620, 14.8 µM (inactive); in the assay on RPMI-8226, 18.7 µM (inactive); in the assay with U-251 it was 17.7 µM (inactive). For the same compound, the GI50 with COLO 205 is 16.6 µM (inactive); in the assay on RXF 393, 6.64 µM (inactive); in the assay on OVCAR-8 it was 24.9 µM (inactive); in the assay with LOX IMVI it was 19.1 µM (inactive); in the assay with HOP-62, 23.4 µM (inactive); with SR, 18.7 µM (inactive). Besides, the GI50 in the assay with NCI-H23 was 23.5 µM (inactive); in the assay on CCRF-CEM it was 23.3 µM (inactive); in the assay on SK-MEL-2, 28 µM (inactive); in the assay with UACC-257 it was 22.9 µM (inactive); in the assay with NCI-H522, 19.2 µM (inactive); with A549, 23 µM (inactive).
Turning to `CC(=O)C1=C(O)C(N)C2Cc3c(c(O)c4c(O)c(C)ccc4c3C)C(=O)C2(O)C1=O` (stereo not drawn), the GI50 in the assay with ACHN was 1.35 µM (inactive); in the assay on KM12 it was 1.9 µM (inactive); in the assay on HCT-15, 0.774 µM; in the assay on SW-620, 2.79 µM (inactive); with RPMI-8226, 1.27 µM (inactive); in the assay with U-251, 0.885 µM (active). Moreover, the GI50 with COLO 205 is 1.64 µM (inactive); in the assay on RXF 393, 4.43 µM (inactive); with OVCAR-8, 1.39 µM (inactive); in the assay with LOX IMVI, 0.973 µM (active); in the assay on HOP-62, 1.58 µM (inactive); with SR, 1.64 µM (inactive). Moreover, the GI50 with NCI-H23 is 1.75 µM (inactive); in the assay on CCRF-CEM, 3.24 µM (inactive); in the assay with SK-MEL-2, 3.56 µM (inactive); in the assay with UACC-257, 2.48 µM (inactive); in the assay with NCI-H522, 3.98 µM (inactive); with OVCAR-4, 5.61 µM (inactive). In addition, the GI50 with A549 is 1.61 µM (inactive).
For `CN(C)CC(C)(C)C(/C=C/c1ccccc1)=N\Nc1ccccc1`, the GI50 with ACHN was 0.132 µM (active); with KM12, 0.579 µM (active); with HCT-15 it was 0.309 µM; in the assay with SW-620, 0.375 µM (active); with RPMI-8226, 1.68 µM (inactive); in the assay with U-251, 0.306 µM (active). The GI50 in the assay on COLO 205 is 3.19 µM (inactive); in the assay with RXF 393, 18 µM (inactive); in the assay with OVCAR-8, 12.8 µM (inactive); in the assay on LOX IMVI it was 0.296 µM (active); in the assay with HOP-62, 2.77 µM (inactive); in the assay on SR it was 0.798 µM (active). For the same compound, the GI50 is 10.6 µM (inactive) in the assay on NCI-H23; 0.367 µM (active) in the assay with CCRF-CEM; 3.6 µM (inactive) in the assay with SK-MEL-2; 10.3 µM (inactive) with UACC-257; 6.14 µM (inactive) in the assay on NCI-H522; 1.06 µM (active) in the assay with OVCAR-4. In the assay with A549, the GI50 was 0.385 µM (active).
As to `Fc1ccc(/N=C2C=C/C(=N\c3ccc(F)cc3)c3ccccc3\2)cc1`, the GI50 in the assay with ACHN is > 100 µM (inactive); with HCT-15, greater than 100 µM; in the assay with SW-620, > 100 µM (inactive); in the assay with RPMI-8226, > 100 µM (inactive); in the assay with U-251, > 100 µM (inactive); in the assay with COLO 205, > 100 µM (inactive). Further, the GI50 in the assay with RXF 393 was 92.3 µM (inactive); in the assay with OVCAR-8, > 100 µM (inactive); in the assay on LOX IMVI, > 100 µM (inactive); in the assay on HOP-62 it was 31.4 µM (inactive); with SR, > 100 µM (inactive); in the assay with NCI-H23 it was 72.1 µM (inactive). For the same compound, the GI50 in the assay with CCRF-CEM, in the assay with SK-MEL-2, with UACC-257, in the assay on NCI-H522 and with A549 was > 100 µM (inactive) each time.
`O=C(CC1(O)C(=O)Nc2ccc([N+](=O)[O-])cc21)c1ccc2ccccc2c1` (stereo not drawn): the GI50 was > 100 µM (inactive) in the assay on ACHN; > 100 µM (inactive) in the assay on KM12; greater than 100 µM in the assay with HCT-15; > 100 µM (inactive) in the assay on SW-620; > 100 µM (inactive) in the assay on RPMI-8226; > 100 µM (inactive) in the assay with U-251. Further, the GI50 with COLO 205, in the assay on RXF 393, in the assay with OVCAR-8, in the assay with HOP-62, in the assay on SR and in the assay on NCI-H23 was > 100 µM (inactive) in each case. Moreover, the GI50 was > 100 µM (inactive) with CCRF-CEM; > 100 µM (inactive) with SK-MEL-2; > 100 µM (inactive) in the assay on UACC-257; 65.6 µM (inactive) in the assay on NCI-H522; > 100 µM (inactive) in the assay with OVCAR-4; > 100 µM (inactive) with A549.
As for `O=C(O)C(Cc1ccccc1)N1C(=O)N/C(=C\c2ccc(F)cc2)C1=O` (stereo not drawn), the GI50 was > 100 µM (inactive) with ACHN; > 100 µM (inactive) in the assay on KM12; greater than 100 µM with HCT-15; > 100 µM (inactive) in the assay on SW-620; > 100 µM (inactive) in the assay with RPMI-8226; > 100 µM (inactive) with U-251. The GI50 in the assay with COLO 205, in the assay with RXF 393, with OVCAR-8, in the assay on LOX IMVI, in the assay on HOP-62 and in the assay on SR was > 100 µM (inactive) throughout. The GI50 in the assay on NCI-H23, with CCRF-CEM, in the assay with SK-MEL-2, in the assay on UACC-257, with NCI-H522 and in the assay with OVCAR-4 was > 100 µM (inactive) throughout. For the same compound, the GI50 in the assay with A549 is > 100 µM (inactive).
Regarding `O=S(=O)(O)c1ccc([Se][Se]c2ccc(S(=O)(=O)O)cc2)cc1`, the GI50 in the assay with ACHN is > 100 µM (inactive); in the assay with KM12 it was > 100 µM (inactive); in the assay with HCT-15, greater than 100 µM; with SW-620, > 100 µM (inactive); in the assay with RPMI-8226 it was 72.4 µM (inactive); in the assay on U-251, > 100 µM (inactive). The GI50 is > 100 µM (inactive) with COLO 205; > 100 µM (inactive) in the assay with RXF 393; > 100 µM (inactive) in the assay on OVCAR-8; > 100 µM (inactive) in the assay with LOX IMVI; > 100 µM (inactive) in the assay with HOP-62; 27.9 µM (inactive) with SR. The GI50 is > 100 µM (inactive) in the assay on NCI-H23; > 100 µM (inactive) in the assay with CCRF-CEM; > 100 µM (inactive) in the assay on SK-MEL-2; > 100 µM (inactive) in the assay with UACC-257; 60.5 µM (inactive) in the assay on NCI-H522; > 100 µM (inactive) with OVCAR-4. Besides, the GI50 in the assay on A549 is > 100 µM (inactive).
In the case of `O=[N+]([O-])c1nccn1CC(O)CN1CC1` (stereo not drawn), the GI50 was 29.1 µM (inactive) with ACHN; 66.8 µM (inactive) in the assay with KM12; 58.6 µM in the assay on HCT-15; 63.8 µM (inactive) with SW-620; 49.4 µM (inactive) with RPMI-8226; 35.6 µM (inactive) with U-251. Also, the GI50 with COLO 205 is 44.6 µM (inactive); with RXF 393, 25.5 µM (inactive); with OVCAR-8, 37.8 µM (inactive); in the assay on HOP-62, 74.3 µM (inactive); in the assay on SR, 27.2 µM (inactive); in the assay on NCI-H23, 36.4 µM (inactive). In addition, the GI50 in the assay with CCRF-CEM is 24.7 µM (inactive); with SK-MEL-2, 41.6 µM (inactive); in the assay with UACC-257, 83.9 µM (inactive); in the assay with NCI-H522, 21.5 µM (inactive); in the assay on OVCAR-4 it was 74.5 µM (inactive); with A549, > 100 µM (inactive).
